Results taken from the supplement of paper PMC10307832.

How the values were obtained:
Test in all cases: relative viability (nuclei count vs DMSO), 5 days (fraction); higher = more cells survive
A-427 = tested on: A-427
Summary of the method: (§1)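 Relative viability divides the nuclei count in treated wells by that in vehicle wells. Lung cancer cell lines were seeded in 1536-well plates, dosed by pin tool the next day, and fixed and stained after 5 days in one step with final 0.05% Triton X-100, 1% formaldehyde and 1 ug/ml Hoechst. Dosing was a single drug or a fixed anchor-drug dose plus five library-drug doses (not always all listed) in √10 steps, and values are medians of duplicate plates imaged at 4×.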

ABC-1 = tested on: ABC-1
Summary of the method: as §1

CAL-12T = tested on: CAL-12T
Summary of the method: as §1

H3255 = tested on: H3255
Summary of the method: as §1

LC-2-ad = tested on: LC-2-ad
Summary of the method: as §1

LCLC-97TM1 = tested on: LCLC-97TM1
Summary of the method: as §1

LK-2 = tested on: LK-2
Summary of the method: as §1

NCI-H1355 = tested on: NCI-H1355
Summary of the method: as §1

NCI-H1395 = tested on: NCI-H1395
Summary of the method: as §1

NCI-H1563 = tested on: NCI-H1563
Summary of the method: as §1

NCI-H1651 = tested on: NCI-H1651
Summary of the method: as §1

NCI-H1666 = tested on: NCI-H1666
Summary of the method: as §1

NCI-H1915 = tested on: NCI-H1915
Summary of the method: as §1

NCI-H2085 = tested on: NCI-H2085
Summary of the method: as §1

NCI-H2087 = tested on: NCI-H2087
Summary of the method: as §1

NCI-H2228 = tested on: NCI-H2228
Summary of the method: as §1

NCI-H322M = tested on: NCI-H322M
Summary of the method: as §1

NCI-H358 = tested on: NCI-H358
Summary of the method: as §1

NCI-H661 = tested on: NCI-H661
Summary of the method: as §1

NCI-H838 = tested on: NCI-H838
Summary of the method: as §1

PC-3 [JPC-3] = tested on: PC-3 [JPC-3]
Summary of the method: as §1

RERF-LC-KJ = tested on: RERF-LC-KJ
Summary of the method: as §1

SK-MES-1 = tested on: SK-MES-1
Summary of the method: as §1

UMC-11 = tested on: UMC-11
Summary of the method: as §1

CCCCCCCCCCCC1=C(O)C(=O)C=C(O)C1=O [Embelin] + COc1cc2c(Oc3ccc(NC(=O)C4(C(=O)Nc5ccc(F)cc5)CC4)cc3F)ccnc2cc1OCCCN1CCOCC1 [Foretinib] (partner 0.25 µM)
relative viability (A-427; first compound 0.08 µM): 1.15
relative viability (A-427; first compound 0.8 µM): 1.14
relative viability (A-427; first compound 2.53 µM): 1.12
relative viability (A-427; first compound 8 µM): 1.2
relative viability (ABC-1; first compound 0.08 µM): 1.17
relative viability (ABC-1; first compound 0.8 µM): 1.12
relative viability (ABC-1; first compound 2.53 µM): 1.05
relative viability (ABC-1; first compound 8 µM): 1.08
relative viability (CAL-12T; first compound 0.08 µM): 1.1
relative viability (CAL-12T; first compound 0.8 µM): 1.22
relative viability (CAL-12T; first compound 2.53 µM): 1.26
relative viability (CAL-12T; first compound 8 µM): 1.16
relative viability (H3255; first compound 0.08 µM): 0.831
relative viability (H3255; first compound 0.8 µM): 1.01
relative viability (H3255; first compound 2.53 µM): 0.82
relative viability (H3255; first compound 8 µM): 0.956
relative viability (LC-2-ad; first compound 0.08 µM): 0.916
relative viability (LC-2-ad; first compound 0.8 µM): 0.987
relative viability (LC-2-ad; first compound 2.53 µM): 1.13
relative viability (LC-2-ad; first compound 8 µM): 0.861
relative viability (LCLC-97TM1; first compound 0.08 µM): 0.988
relative viability (LCLC-97TM1; first compound 0.8 µM): 0.943
relative viability (LCLC-97TM1; first compound 2.53 µM): 1.04
relative viability (LCLC-97TM1; first compound 8 µM): 0.899
relative viability (LK-2; first compound 0.08 µM): 1.13
relative viability (LK-2; first compound 0.8 µM): 1.7
relative viability (LK-2; first compound 2.53 µM): 1.47
relative viability (LK-2; first compound 8 µM): 1.79
relative viability (NCI-H1355; first compound 0.08 µM): 0.969
relative viability (NCI-H1355; first compound 0.8 µM): 1.07
relative viability (NCI-H1355; first compound 2.53 µM): 1.21
relative viability (NCI-H1355; first compound 8 µM): 1.03
relative viability (NCI-H1395; first compound 0.08 µM): 0.904
relative viability (NCI-H1395; first compound 0.8 µM): 1.13
relative viability (NCI-H1395; first compound 2.53 µM): 1.08
relative viability (NCI-H1395; first compound 8 µM): 0.953
relative viability (NCI-H1563; first compound 0.08 µM): 0.932
relative viability (NCI-H1563; first compound 0.8 µM): 1.09
relative viability (NCI-H1563; first compound 2.53 µM): 0.944
relative viability (NCI-H1563; first compound 8 µM): 0.896
relative viability (NCI-H1651; first compound 0.08 µM): 0.848
relative viability (NCI-H1651; first compound 0.8 µM): 0.865
relative viability (NCI-H1651; first compound 2.53 µM): 0.924
relative viability (NCI-H1651; first compound 8 µM): 0.769
relative viability (NCI-H1666; first compound 0.08 µM): 0.943
relative viability (NCI-H1666; first compound 0.8 µM): 1.07
relative viability (NCI-H1666; first compound 2.53 µM): 0.978
relative viability (NCI-H1666; first compound 8 µM): 0.941
relative viability (NCI-H1915; first compound 0.08 µM): 1.14
relative viability (NCI-H1915; first compound 0.8 µM): 1.1
relative viability (NCI-H1915; first compound 2.53 µM): 1.13
relative viability (NCI-H1915; first compound 8 µM): 1.13
relative viability (NCI-H2085; first compound 0.08 µM): 1.04
relative viability (NCI-H2085; first compound 0.8 µM): 0.986
relative viability (NCI-H2085; first compound 2.53 µM): 1.05
relative viability (NCI-H2085; first compound 8 µM): 0.843
relative viability (NCI-H2087; first compound 0.08 µM): 1.07
relative viability (NCI-H2087; first compound 0.8 µM): 1.27
relative viability (NCI-H2087; first compound 2.53 µM): 1.03
relative viability (NCI-H2087; first compound 8 µM): 1.19
relative viability (NCI-H2228; first compound 0.08 µM): 1.08
relative viability (NCI-H2228; first compound 0.8 µM): 0.868
relative viability (NCI-H2228; first compound 2.53 µM): 1.32
relative viability (NCI-H2228; first compound 8 µM): 0.996
relative viability (NCI-H322M; first compound 0.08 µM): 0.938
relative viability (NCI-H322M; first compound 0.8 µM): 1.22
relative viability (NCI-H322M; first compound 2.53 µM): 1.03
relative viability (NCI-H322M; first compound 8 µM): 0.961
relative viability (NCI-H358; first compound 0.08 µM): 0.753
relative viability (NCI-H358; first compound 0.8 µM): 0.81
relative viability (NCI-H358; first compound 2.53 µM): 0.976
relative viability (NCI-H358; first compound 8 µM): 0.869
relative viability (NCI-H661; first compound 0.08 µM): 1.03
relative viability (NCI-H661; first compound 0.8 µM): 1.08
relative viability (NCI-H661; first compound 2.53 µM): 0.994
relative viability (NCI-H661; first compound 8 µM): 0.976
relative viability (NCI-H838; first compound 0.08 µM): 1.08
relative viability (NCI-H838; first compound 0.8 µM): 1.11
relative viability (NCI-H838; first compound 2.53 µM): 1.06
relative viability (NCI-H838; first compound 8 µM): 1.09
relative viability (PC-3 [JPC-3]; first compound 0.08 µM): 1.01
relative viability (PC-3 [JPC-3]; first compound 0.8 µM): 1.02
relative viability (PC-3 [JPC-3]; first compound 2.53 µM): 0.985
relative viability (PC-3 [JPC-3]; first compound 8 µM): 1.08
relative viability (RERF-LC-KJ; first compound 0.08 µM): 0.836
relative viability (RERF-LC-KJ; first compound 0.8 µM): 0.965
relative viability (RERF-LC-KJ; first compound 2.53 µM): 0.95
relative viability (RERF-LC-KJ; first compound 8 µM): 1
relative viability (SK-MES-1; first compound 0.08 µM): 0.943
relative viability (SK-MES-1; first compound 0.8 µM): 1.22
relative viability (SK-MES-1; first compound 2.53 µM): 0.972
relative viability (SK-MES-1; first compound 8 µM): 0.94
relative viability (UMC-11; first compound 0.08 µM): 1.06
relative viability (UMC-11; first compound 0.8 µM): 1.14
relative viability (UMC-11; first compound 2.53 µM): 1.21
relative viability (UMC-11; first compound 8 µM): 1.28
